# Reference: patent US20240409585A1, “MACROCYCLIC IMMUNOMODULATORS” (priority 2021, published 2024)
# Bridge positions count the residues as written; N and C are the ends. Square brackets hold non-standard residues; d marks the D form. Peptide text beside a SMILES is read from it. * marks the point of attachment. Phe(3,4-Cl2) = N[C@@H](Cc1ccc(Cl)c(Cl)c1)C(=O)O; Ala(morpholin-4-yl) = N[C@@H](CN1CCOCC1)C(=O)O; Phe(4-COOH) = N[C@@H](Cc1ccc(C(=O)O)cc1)C(=O)O; Phe(2,4-Cl2) = N[C@@H](Cc1ccc(Cl)cc1Cl)C(=O)O; Bip = N[C@@H](Cc1ccc(-c2ccccc2)cc1)C(=O)O; Phe(3-OMe) = COc1cccc(C[C@H](N)C(=O)O)c1; Phe(3-NH2) = Nc1cccc(C[C@H](N)C(=O)O)c1; Phe(3-Me) = Cc1cccc(C[C@H](N)C(=O)O)c1; Cha = N[C@@H](CC1CCCCC1)C(=O)O; Carboxymethyl = O=C(O)C*; NMeA = CN[C@@H](C)C(=O)O; Orn = NCCC[C@H](N)C(=O)O; Dab = NCC[C@H](N)C(=O)O
# How the values were obtained:
# [1] = target: T1, PE-labeled human PD-L1-Ig binding to Jurkat cell line over-expressing human PD-1 (Jurkat-PD-1) (Homo sapiens, UniProt Q15116); experiment: Jurkat-PD-1 Cell Binding High-Content Screening Assay (CBA): Method 1; details: Jurkat-PD-1 cells, PE-labeled PD-L1-Ig; μM; read-out: CBA Method 1 μM
# T1 construct: expressed in transfected cells; host or cells: Jurkat
# [2] = target: T1, PE-labeled human PD-L1-Ig binding to Jurkat cell line over-expressing human PD-1 (Jurkat-PD-1); experiment: Jurkat-PD-1 Cell Binding High-Content Screening Assay (CBA): Method 2 (presence and absence of tween-20); details: Jurkat-PD-1 cells, PE-labeled PD-L1-Ig 20 nM; presence or absence of tween-20 not given; head μM; read-out: CBA Method 2 μM
# Experimental: Jurkat-PD-1 Cell Binding High-Content Screening Assay (CBA): Method 2
# Phycoerythrin (PE) was covalently linked to the Ig epitope tag of human PD-L1-Ig and fluorescently labeled PD-L1-Ig was used for binding studies with a Jurkat cell line over-expressing human PD-1 (Jurkat-PD-1). […] 100 nl of compound was added to cells followed by incubation at 37° C. for 2 hours. To interrogate potential issues with compound aggregation, compounds were tested in the presence and absence of tween-20 detergent. […] Then, 5 μl of PE-labeled PD-L1-Ig (20 nM final), diluted in DMEM supplemented with 10% fetal calf serum. […] Data was collected and processed using a Cell Insight NXT High Content Imager and associated software.
# T1 sequence (Q15116 25-288): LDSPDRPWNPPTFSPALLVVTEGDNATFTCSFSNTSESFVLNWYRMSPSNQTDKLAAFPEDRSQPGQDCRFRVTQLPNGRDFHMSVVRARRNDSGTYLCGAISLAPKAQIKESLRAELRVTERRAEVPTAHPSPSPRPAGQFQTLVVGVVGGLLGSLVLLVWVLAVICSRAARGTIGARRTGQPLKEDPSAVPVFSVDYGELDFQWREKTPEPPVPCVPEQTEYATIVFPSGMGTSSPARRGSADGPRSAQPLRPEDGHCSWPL
IC50 [1],IC50 [2],SMILES
0.0159 µM,0.0146 µM,Cc1cccc(C[C@@H]2NC(=O)[C@H](CC(=O)O)NC(=O)[C@H](Cc3ccc(OCC(=O)O)cc3)NC(=O)[C@H](CN3CCOCC3)NC(=O)CSC[C@@H](C(=O)N[C@@H](CCN)C(N)=O)NC(=O)[C@H](CCCN)NC(=O)[C@H](C(C)C)NC(=O)[C@H](Cc3cccc(N)c3)NC(=O)[C@H](CCN)NC(=O)[C@@H](CC(C)C)NC(=O)[C@H](C)N(C)C(=O)[C@H](CCC(N)=O)NC(=O)[C@H](Cc3ccc(-c4ccccc4)cc3)NC(=O)[C@H](Cc3ccc(C(=O)O)cc3)NC2=O)c1 [Example 5040] ({CH2CO}-[Ala(morpholin-4-yl)]Y(Carboxymethyl)D[Phe(3-Me)][Phe(4-COOH)][Bip]Q[NMeA][dL][Dab][Phe(3-NH2)]V[Orn]C[Dab]-NH2; thioether N-14)
0.0888 µM,0.0822 µM,"Cc1cccc(C[C@@H]2NC(=O)[C@H](CC(=O)O)NC(=O)[C@H](Cc3ccc(OCC(=O)O)cc3)NC(=O)[C@H](CN3CCOCC3)NC(=O)CSC[C@@H](C(=O)N[C@@H](CCN)C(N)=O)NC(=O)[C@H](CCCN)NC(=O)[C@H](C(C)C)NC(=O)[C@H](Cc3ccc(Cl)cc3Cl)NC(=O)[C@H](CCN)NC(=O)[C@@H](CC(C)C)NC(=O)[C@H](C)N(C)C(=O)[C@H](CCC(N)=O)NC(=O)[C@H](Cc3ccc(-c4ccccc4)cc3)NC(=O)[C@H](Cc3ccc(C(=O)O)cc3)NC2=O)c1 [Example 5041] ({CH2CO}-[Ala(morpholin-4-yl)]Y(Carboxymethyl)D[Phe(3-Me)][Phe(4-COOH)][Bip]Q[NMeA][dL][Dab][Phe(2,4-Cl2)]V[Orn]C[Dab]-NH2; thioether N-14)"
0.0639 µM,0.0689 µM,"Cc1cccc(C[C@@H]2NC(=O)[C@H](CC(=O)O)NC(=O)[C@H](Cc3ccc(OCC(=O)O)cc3)NC(=O)[C@H](CN3CCOCC3)NC(=O)CSC[C@@H](C(=O)N[C@@H](CCN)C(N)=O)NC(=O)[C@H](CCCN)NC(=O)[C@H](C(C)C)NC(=O)[C@H](Cc3ccc(Cl)c(Cl)c3)NC(=O)[C@H](CCN)NC(=O)[C@@H](CC(C)C)NC(=O)[C@H](C)N(C)C(=O)[C@H](CCC(N)=O)NC(=O)[C@H](Cc3ccc(-c4ccccc4)cc3)NC(=O)[C@H](Cc3ccc(C(=O)O)cc3)NC2=O)c1 [Example 5042] ({CH2CO}-[Ala(morpholin-4-yl)]Y(Carboxymethyl)D[Phe(3-Me)][Phe(4-COOH)][Bip]Q[NMeA][dL][Dab][Phe(3,4-Cl2)]V[Orn]C[Dab]-NH2; thioether N-14)"
0.0098 µM,0.0098 µM,COc1cccc(C[C@@H]2NC(=O)[C@H](CCN)NC(=O)[C@@H](CC(C)C)NC(=O)[C@H](C)N(C)C(=O)[C@H](CCC(N)=O)NC(=O)[C@H](Cc3ccc(-c4ccccc4)cc3)NC(=O)[C@H](Cc3ccc(C(=O)O)cc3)NC(=O)[C@H](Cc3cccc(C)c3)NC(=O)[C@H](CC(=O)O)NC(=O)[C@H](Cc3ccc(OCC(=O)O)cc3)NC(=O)[C@H](CN3CCOCC3)NC(=O)CSC[C@@H](C(=O)N[C@@H](CCN)C(N)=O)NC(=O)[C@H](CCCN)NC(=O)[C@H](C(C)C)NC2=O)c1 [Example 5043] ({CH2CO}-[Ala(morpholin-4-yl)]Y(Carboxymethyl)D[Phe(3-Me)][Phe(4-COOH)][Bip]Q[NMeA][dL][Dab][Phe(3-OMe)]V[Orn]C[Dab]-NH2; thioether N-14)
0.0016 µM,0.0014 µM,Cc1cccc(C[C@@H]2NC(=O)[C@H](CC(=O)O)NC(=O)[C@H](Cc3ccc(OCC(=O)O)cc3)NC(=O)[C@H](CN3CCOCC3)NC(=O)CSC[C@@H](C(=O)N[C@@H](CCN)C(N)=O)NC(=O)[C@H](CCCN)NC(=O)[C@H](C(C)C)NC(=O)[C@H](CC3CCCCC3)NC(=O)[C@H](CCN)NC(=O)[C@@H](CC(C)C)NC(=O)[C@H](C)N(C)C(=O)[C@H](Cc3ccc(C(=O)O)cc3)NC(=O)[C@H](Cc3ccc(-c4ccccc4)cc3)NC(=O)[C@H](Cc3ccc(C(=O)O)cc3)NC2=O)c1 [Example 5045] ({CH2CO}-[Ala(morpholin-4-yl)]Y(Carboxymethyl)D[Phe(3-Me)][Phe(4-COOH)][Bip][Phe(4-COOH)][NMeA][dL][Dab][Cha]V[Orn]C[Dab]-NH2; thioether N-14)
